Laboratory results published in the supplement of paper PMC6965134.
± gives the standard deviation of the averaged measurements.

Assay: TIMS collisional cross section (CCS, N2) of the lipid ion; higher = larger ion cross section
Details: ionization mode: negative, one isomer drawn
Experimental: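 Lipid extracts of human plasma (NIST SRM 1950), mouse liver or HeLa cells were separated by nanoflow C18 LC (30 min gradient) and analysed by TIMS-PASEF on a timsTOF Pro. Ion mobility was calibrated with the Agilent tuning mix (negative mode ions) and converted to collisional cross sections (Mason–Schamp, N2).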

[1] = sample type: Mouse Liver, ion (formula + adduct): [C39H72NO8P-H] 1-
[2] = sample type: Human plasma, ion (formula + adduct): [C43H78NO8P-H] 1-
[3] = sample type: Human plasma, ion (formula + adduct): [C41H78NO8P-H] 1-
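Note: lipids from MTBE extraction, five replicate injections per sample, 100 ms TIMS ramp spanning 0.6–1.95 Vs/cm², lipid identity assigned from PASEF MS/MS spectra.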

For CC/C=C\C/C=C\C/C=C\C/C=C\C/C=C\C/C=C\CCC(=O)O[C@H](CO/C=C\CCCCCCCCCCCCCCCC)COP(=O)([O-])OCC[N+](C)(C)C [PC P- 18:0@_22:6], the “TIMS collisional cross section” value (sample type: Mouse Liver, ion (formula + adduct): [C48H84NO7P-CH3] 1-) was 285.8 Å².
With CCCCC/C=C\C/C=C\CCCCCCCC(=O)O[C@H](CO/C=C\CCCCCCCCCCCCCCCCCC)COP(=O)([O-])OCC[N+](C)(C)C [PC P- 20:0@_18:2] the “TIMS collisional cross section” value (sample type: Human plasma, ion (formula + adduct): [C46H88NO7P-CH3] 1-) was 285.4 Å².
With CC/C=C\C/C=C\C/C=C\C/C=C\C/C=C\C/C=C\CCC(=O)O[C@H](COC(=O)CCCCCCCCCCCCCC)COP(=O)(O)OCCN [PE 15:0_22:6] the “TIMS collisional cross section” value (sample type: Mouse Liver, ion (formula + adduct): [C42H72NO8P-H] 1-) was 271.6 Å².
For CC/C=C\C/C=C\C/C=C\C/C=C\C/C=C\C/C=C\CCC(=O)OC(COC(=O)CCCCCCCCCCCCCCC)COP(=O)(O)OCCN (configuration not stated) [PE 16:0@_22:6], the “TIMS collisional cross section” value (sample type: Human plasma, ion (formula + adduct): [C43H74NO8P-H] 1-) was 275 Å².
In the case of CCCCCCCCCCCCCCCC(=O)OCC(COP(=O)(O)OCCN)OC(=O)CCCCCCCCCCCCCCC (configuration not stated) [PE 16:0_16:0], the “TIMS collisional cross section” value (sample type: Mouse Liver, ion (formula + adduct): [C37H74NO8P-H] 1-) is reported as 263.3 Å².
In the case of CCCCCCCC/C=C\CCCCCCCC(=O)OC(COC(=O)CCCCCCCCCCCCCCC)COP(=O)(O)OCCN (configuration not stated) [PE 16:0_18:1], the “TIMS collisional cross section” value (sample type: Human plasma, ion (formula + adduct): [C39H76NO8P-H] 1-) is reported as 268.4 Å² and the “TIMS collisional cross section” value (sample type: Mouse Liver, ion (formula + adduct): [C39H76NO8P-H] 1-) is reported as 268.4 Å².
For CCCCC/C=C\C/C=C\CCCCCCCC(=O)OC(COC(=O)CCCCCCCCCCCCCCC)COP(=O)(O)OCCN (configuration not stated) [PE 16:0_18:2], the “TIMS collisional cross section” value (sample type: Human plasma, ion (formula + adduct): [C39H74NO8P-H] 1-) was 266.6 Å² and the “TIMS collisional cross section” value (sample type: Mouse Liver, ion (formula + adduct): [C39H74NO8P-H] 1-) was 266.6 Å².
For CC/C=C\C/C=C\C/C=C\CCCCCCCC(=O)O[C@H](COC(=O)CCCCCCCCCCCCCCC)COP(=O)(O)OCCN [PE 16:0_18:3], the “TIMS collisional cross section” value [1] was 264.9 Å².
In the case of CCCCCCCCC/C=C\CCCCCCCC(=O)O[C@H](COC(=O)CCCCCCCCCCCCCCC)COP(=O)(O)OCCN [PE 16:0_19:1], the “TIMS collisional cross section” value (sample type: Mouse Liver, ion (formula + adduct): [C40H78NO8P-H] 1-) is reported as 271.2 Å².
For CCCCCCCC/C=C\CCCCCCCCCC(=O)O[C@H](COC(=O)CCCCCCCCCCCCCCC)COP(=O)(O)OCCN [PE 16:0_20:1], the “TIMS collisional cross section” value (sample type: Mouse Liver, ion (formula + adduct): [C41H80NO8P-H] 1-) was 275.2 Å².
For CCCCC/C=C\C/C=C\C/C=C\C/C=C\CCCC(=O)O[C@H](COC(=O)CCCCCCCCCCCCCCC)COP(=O)(O)OCCN [PE 16:0_20:4], the “TIMS collisional cross section” value (sample type: Mouse Liver, ion (formula + adduct): [C41H74NO8P-H] 1-) was 270.7 ± 0.46 Å².
With CCCCC/C=C\C/C=C\C/C=C\C/C=C\CCCCCC(=O)O[C@H](COC(=O)CCCCCCCCCCCCCCC)COP(=O)(O)OCCN [PE 16:0_22:4] the “TIMS collisional cross section” value [2] was 276.8 Å².
In the case of CC/C=C\C/C=C\C/C=C\C/C=C\C/C=C\C/C=C\CCC(=O)OC(COC(=O)CCCCCCCCCCCCCCC)COP(=O)(O)OCCN (configuration not stated) [PE 16:0_22:6], the “TIMS collisional cross section” value (sample type: Mouse Liver, ion (formula + adduct): [C43H74NO8P-H] 1-) is reported as 274.62 ± 0.25 Å².
With CCCCCC/C=C\CCCCCCCC(=O)OC[C@H](COP(=O)(O)OCCN)OC(=O)CCCCCCCCCCCCCCC [PE 16:1_16:0] the “TIMS collisional cross section” value (sample type: Human plasma, ion (formula + adduct): [C37H72NO8P-H] 1-) was 261.6 Å² and the “TIMS collisional cross section” value (sample type: Mouse Liver, ion (formula + adduct): [C37H72NO8P-H] 1-) was 261.6 Å².
In the case of CCCCCC/C=C\CCCCCCCC(=O)OCC(COP(=O)(O)OCCN)OC(=O)CCCCCCC/C=C\CCCCCC (configuration not stated) [PE 16:1_16:1], the “TIMS collisional cross section” value (sample type: Mouse Liver, ion (formula + adduct): [C37H70NO8P-H] 1-) is reported as 259.3 Å².
In the case of CCCCCC/C=C\CCCCCCCC(=O)OC[C@H](COP(=O)(O)OCCN)OC(=O)CCCCCCC/C=C\CCCCCCC [PE 16:1_17:1], the “TIMS collisional cross section” value (sample type: Mouse Liver, ion (formula + adduct): [C38H72NO8P-H] 1-) is reported as 263.2 Å².
In the case of CC/C=C\C/C=C\C/C=C\C/C=C\C/C=C\CCCC(=O)O[C@H](COC(=O)CCCCCCC/C=C\CCCCCC)COP(=O)(O)OCCN [PE 16:1_20:5], the “TIMS collisional cross section” value (sample type: Mouse Liver, ion (formula + adduct): [C41H70NO8P-H] 1-) is reported as 267.1 Å².
For CCCCC/C=C\C/C=C\CCCCCCCC(=O)O[C@H](COC(=O)CCCCCCCCCCCCCCCC)COP(=O)(O)OCCN [PE 17:0_18:2], the “TIMS collisional cross section” value (sample type: Mouse Liver, ion (formula + adduct): [C40H76NO8P-H] 1-) was 269.4 Å².
In the case of CCCCC/C=C\C/C=C\C/C=C\C/C=C\CCCC(=O)O[C@H](COC(=O)CCCCCCCCCCCCCCCC)COP(=O)(O)OCCN [PE 17:0_20:4], the “TIMS collisional cross section” value (sample type: Mouse Liver, ion (formula + adduct): [C42H76NO8P-H] 1-) is reported as 273.9 Å².
For CCCCC/C=C\C/C=C\CCCCCCCC(=O)O[C@H](COC(=O)CCCCCCC/C=C\CCCCCCC)COP(=O)(O)OCCN [PE 17:1_18:2], the “TIMS collisional cross section” value (sample type: Mouse Liver, ion (formula + adduct): [C40H74NO8P-H] 1-) was 267.7 Å².
In the case of CCCCC/C=C\C/C=C\C/C=C\C/C=C\CCCC(=O)O[C@H](COC(=O)CCCCCCC/C=C\CCCCCCC)COP(=O)(O)OCCN [PE 17:1_20:4], the “TIMS collisional cross section” value (sample type: Mouse Liver, ion (formula + adduct): [C42H74NO8P-H] 1-) is reported as 271.6 Å².
For CC/C=C\C/C=C\C/C=C\C/C=C\C/C=C\C/C=C\CCC(=O)O[C@H](COC(=O)CCCCCCC/C=C\CCCCCCC)COP(=O)(O)OCCN [PE 17:1_22:6], the “TIMS collisional cross section” value (sample type: Mouse Liver, ion (formula + adduct): [C44H74NO8P-H] 1-) was 275.5 Å².
With CCCCC/C=C\C/C=C\CCCCCCCC(=O)OC(COC(=O)CCCCCCCCCCCCCCCCC)COP(=O)(O)OCCN (configuration not stated) [PE 18:0@_18:2] the “TIMS collisional cross section” value [3] was 273.4 Å².
In the case of CC/C=C\C/C=C\C/C=C\C/C=C\C/C=C\C/C=C\CCC(=O)OC(COC(=O)CCCCCCCCCCCCCCCCC)COP(=O)(O)OCCN (configuration not stated) [PE 18:0@_22:6], the “TIMS collisional cross section” value (sample type: Human plasma, ion (formula + adduct): [C45H78NO8P+AcO] 1-) is reported as 297.5 Å².
With CCCCCCCCCCCCCCCCCC(=O)OC[C@H](COP(=O)(O)OCCN)OC(=O)CCCCCCCCCCCCCCC [PE 18:0_16:0] the “TIMS collisional cross section” value (sample type: Mouse Liver, ion (formula + adduct): [C39H78NO8P-H] 1-) was 269.5 Å².
For CCCCCCCCCCCCCCCCCC(=O)OCC(COP(=O)(O)OCCN)OC(=O)CCCCCCCCCCCCCCCCC (configuration not stated) [PE 18:0_18:0], the “TIMS collisional cross section” value (sample type: Mouse Liver, ion (formula + adduct): [C41H82NO8P-H] 1-) was 275.1 Å².
For CCCCCCCC/C=C\CCCCCCCC(=O)OC(COC(=O)CCCCCCCCCCCCCCCCC)COP(=O)(O)OCCN (configuration not stated) [PE 18:0_18:1], the “TIMS collisional cross section” value (sample type: Human plasma, ion (formula + adduct): [C41H80NO8P-H] 1-) was 274.6 Å².
For CCCCC/C=C\C/C=C\CCCCCCCC(=O)OC(COC(=O)CCCCCCCCCCCCCCCCC)COP(=O)(O)OCCN (configuration not stated) [PE 18:0_18:2], the “TIMS collisional cross section” value (sample type: Mouse Liver, ion (formula + adduct): [C41H78NO8P-H] 1-) was 272.8 Å².
For CCCCCCCCC/C=C\CCCCCCCC(=O)O[C@H](COC(=O)CCCCCCCCCCCCCCCCC)COP(=O)(O)OCCN [PE 18:0_19:1], the “TIMS collisional cross section” value (sample type: Mouse Liver, ion (formula + adduct): [C42H82NO8P-H] 1-) was 278 Å².
In the case of CCCCCCCC/C=C\CCCCCCCCCC(=O)O[C@H](COC(=O)CCCCCCCCCCCCCCCCC)COP(=O)(O)OCCN [PE 18:0_20:1], the “TIMS collisional cross section” value (sample type: Mouse Liver, ion (formula + adduct): [C43H84NO8P-H] 1-) is reported as 282 Å².
With CCCCC/C=C\C/C=C\C/C=C\C/C=C\CCCC(=O)O[C@H](COC(=O)CCCCCCCCCCCCCCCCC)COP(=O)(O)OCCN [PE 18:0_20:4] the “TIMS collisional cross section” value [2] was 276.8 Å² and the “TIMS collisional cross section” value (sample type: Mouse Liver, ion (formula + adduct): [C43H78NO8P-H] 1-) was 276.57 ± 0.29 Å².
With CC/C=C\C/C=C\C/C=C\C/C=C\C/C=C\C/C=C\CCC(=O)OC(COC(=O)CCCCCCCCCCCCCCCCC)COP(=O)(O)OCCN (configuration not stated) [PE 18:0_22:6] the “TIMS collisional cross section” value (sample type: Human plasma, ion (formula + adduct): [C45H78NO8P-H] 1-) was 281.8 Å².
In the case of CCCCCCCC/C=C\CCCCCCCC(=O)OCC(COP(=O)(O)OCCN)OC(=O)CCCCCCC/C=C\CCCCCCCC (configuration not stated) [PE 18:1_18:1], the “TIMS collisional cross section” value [3] is reported as 272.3 Å².
In the case of CCCCC/C=C\C/C=C\CCCCCCCC(=O)O[C@H](COC(=O)CCCCCCC/C=C\CCCCCCCC)COP(=O)(O)OCCN [PE 18:1_18:2], the “TIMS collisional cross section” value (sample type: Human plasma, ion (formula + adduct): [C41H76NO8P-H] 1-) is reported as 272 Å².
In the case of CCCCC/C=C\C/C=C\CCCCCCCCCCCC(=O)O[C@H](COC(=O)CCCCCCC/C=C\CCCCCCCC)COP(=O)(O)OCCN [PE 18:1_22:2], the “TIMS collisional cross section” value (sample type: Mouse Liver, ion (formula + adduct): [C45H84NO8P-H] 1-) is reported as 284.1 Å².
In the case of CCCCC/C=C\C/C=C\CCCCCCCC(=O)OC[C@H](COP(=O)(O)OCCN)OC(=O)CCCCCCC/C=C\CCCCCC [PE 18:2_16:1@], the “TIMS collisional cross section” value [1] is reported as 264 Å².
With CCCCC/C=C\C/C=C\CCCCCCCC(=O)OC[C@H](COP(=O)(O)OCCN)OC(=O)CCCCCCC/C=C\CCCCCC [PE 18:2_16:1] the “TIMS collisional cross section” value (sample type: Human plasma, ion (formula + adduct): [C39H72NO8P-H] 1-) was 264.3 Å² and the “TIMS collisional cross section” value [1] was 264.3 Å².
